Reference: PMC7146288, “Microwave Assisted Synthesis of 4-Phenylquinazolin-2(1H)-one Derivatives that Inhibit Vasopressor Tonus in Rat Thoracic Aorta” (Molecules, 2020)
“Also recorded” adds a separate entry of the source.

What was measured:
[1] = test system: rat thoracic aorta rings, endothelium-intact (E+); experiment: Vascular reactivity: vasorelaxation in endothelium-intact (E+) aortic rings pre-contracted with Phe 1 µM; design: species or system Male Wistar normotensive rats (Rattus norvegicus); settings: for IC50: Rattus norvegicus, rings pre-contracted with Phe 1 µM, cumulative 1-30 µM, mean ± SEM, read-out: IC50 vasorelaxation response in endothelium-intact (E+) aorta arterial vessels; for relaxation at the highest concentration: 30 μM, endothelium-intact aorta rings pre-contracted with Phe 1 µM
Experimental: (§1) All compounds were dissolved with DMSO 100% to obtain a stock solution of 10 mM. In all experiments, the stock solution was employed to obtain a final concentration diluted in Krebs Henseleit solution (vascular reactivity assay) and DMEM supplemented with 10% FBS (cytotoxicity assay).
Male Wistar normotensive rats (Rattus norvegicus) weighing between 200 and 300 grams were supplied by the Central Animal Facility of Fluminense Federal University (NAL-UFF) (Rio de Janeiro, Brazil). The animals were kept in standard environmental conditions of temperature (22 ± 1 °C) and 12 h light/dark cycle, with free access to food (Purina, Brazil) and water. All experiments were conducted in accordance to the guidelines established by National Council for Animal Experimentation Control (CONCEA, Brazil). This study was approved by the Ethics Committee in the Use of Animals of the Fluminense Federal University (CEUA-UFF), certificate under protocol number: 795/2017.
(§2) Animals were anesthetized by isoflurane (1% mg/kg) inhalation and, after the loss of motor control, rats were euthanized by cervical dislocation. Subsequently, the thoracic aorta was dissected and cleaned of connective tissue to obtain rings 4 mm in length that were suspended in a 15 mL organ bath (Panlab four chamber organ bath, AD-Instruments, Sydney, Australia). Tissues were kept in Krebs Henseleit solution at 37 °C with the following composition (mM): NaCl 120; KCl 5.0; MgCl2 1.1; CaCl2 2.5; NaH2PO4 1.2; N-[2-hydroxyethyl] piperazine-N’-[2-ethane-sulfonic acid] (HEPES) 10; NaHCO3 15; and glucose 11, bubbled constantly with a gas mixture of 95% O2 and 5% CO2 (pH 7.4). Each arterial segment was suspended between two steel hooks connected to an isometric transducer to measure tension through a data acquisition system (PowerLab 8 and LabChart Pro, AD-Instruments, Australia). […] Functional endothelial integrity was assessed by the ability of 10 µM ACh to induce ≥70% relaxation in vessels pre-contracted with 1 µM Phe.
Values are expressed as mean ± standard error of mean (SEM). A P-value less than 0.05 was termed statistically significant. The IC50 values (defined as the concentration of the test compound that reduced 50% of the maximal contraction) were obtained by actual concentration-response curve fitting using GraphPad Prism 6.0 software (GraphPad Software, San Diego, CA). Statistical significance was determined using Bonferroni´s multiple comparison for vascular reactivity experiments and using Turkey´s multiple comparison for cytotoxicity evaluation following two-way analysis of variance (ANOVA).
Figure 3 Concentration-response curves for compounds 2a–f and control (vehicle: DMSO) in intact endothelium aortic rings pre-contracted with Phe 1 µM. Cumulative concentrations (1 µM, 3 µM, 10 µM and 30 µM) were added to the Phe contraction plateau. DMSO was employed at the same volume used to dissolve the compound stock solution (maximum final concentration at 0.3%). All data are expressed as mean ± standard error of the mean (SEM) (n = 4–5). (* P < 0.05; *** P < 0.001; **** P < 0.0001 compound vs. control).

[2] = test system: VERO cells; experiment: MTT cell viability (cytotoxicity) assay; format: cell-based, African Green monkey (Cercopithecus aethiops); settings: 30 µM, 48 h exposure
Experimental: as §1
(§3) A 3-[4,5-dimehyl-2-thiazolyl]-2,5-diphenyl-2H-tetrazoliumbromide (MTT) assay was employed to assess the general cytotoxicity for 4-phenylquinazolin-2(1H)-one derivatives. […]
(§4) The MTT cell viability assay investigates the number of viable cells by measuring the mitochondrial-dependent reduction of water-soluble tetrazolium into an insoluble formazan product. The absorbance obtained is directly proportional to the activity of functional mitochondria and represents the number of viable cells. […] Absorbance was measured with a plate reader (SpectraMax 190, CA, USA) at a wavelength of 550 nm and expressed as a percentage of the control (vehicle).
(§5) Figure 5 Cell viability assessed by the MTT method on the VERO cell line after 48 h of exposure to the compounds. […] All data are expressed as mean ± standard error of the mean (SEM) (n = 22–25). […]

[3] = MTT cell viability (cytotoxicity) assay; format: cell-based, African Green monkey (Cercopithecus aethiops); settings: African green monkey (Cercopithecus aethiops), VERO kidney cells, 48 h exposure, % of vehicle control, read-out: percentage of cell viability (living cells)
Experimental: as §1, §3, §4, §5

[4] = test system: rat thoracic aorta rings, endothelium-denuded (E−); experiment: Vascular reactivity: vasorelaxation in endothelium-denuded (E−) aortic rings pre-contracted with Phe 1 µM; design: species or system Male Wistar normotensive rats (Rattus norvegicus); settings: endothelium-denuded rings pre-contracted with Phe 1 µM; cumulative up to 30 µM
Experimental: A representative record of cumulative concentrations of compound 2f (1 μM, 3 μM, 10 μM and 30 μM) on aortic rings endothelium-intact and endothelium-denuded pre-contracted with Phe 1 μM are shown in Figure 4. Phe induced a steady tone in both preparations that were greater in endothelium denuded rings.
as §2, with “7.4).” for “7.4). Each arterial segment was suspended between two steel hooks connected to an isometric transducer to measure tension through a data acquisition system (PowerLab 8 and LabChart Pro, AD-Instruments, Australia).”
Figure 4 Concentration-response curves of compound 2f in endothelium-intact (E+) and endothelium-denuded (E−) aortic rings pre-contracted with Phe 1 µM. […] All data are expressed as mean ± standard error of the mean (SEM) (n = 4). […]

Compound	IC50 [1] [µM]	cytotoxicity according to ISO 10993: 5 (viability below 70% = cytotoxic) [2]	viability at 48 h, 30 µM [3] [%]	relaxation at the highest concentration [1]	vasorelaxation in the absence of the endothelium [4]
O=c1nc(-c2ccccc2)c2ccccc2[nH]1 [Compound 2a]	39.7 ± 6.77	–	–	–	–
O=c1nc(-c2ccccc2F)c2cc(Cl)ccc2[nH]1 [Compound 2d]	26.5 ± 8.98	–	–	–	–
O=c1nc(-c2ccccc2)c2cc(Br)ccc2[nH]1 [Compound 2e]	4.94 ± 1.21	–	–	around 90%	–

Further lines, with some results ahead:

IC50 [1] [µM]	Compound	cytotoxicity according to ISO 10993: 5 (viability below 70% = cytotoxic) [2]	viability at 48 h, 30 µM [3] [%]	relaxation at the highest concentration [1]	vasorelaxation in the absence of the endothelium [4]
16.4 ± 3.5	O=c1nc(-c2ccccc2)c2cc([N+](=O)[O-])ccc2[nH]1 [Compound 2b]	cytotoxic; also recorded: induced cytotoxicity	69	–	–
4.31 ± 0.9	Cc1ccccc1-c1nc(=O)[nH]c2ccc(Cl)cc12 [Compound 2c]	–	–	around 90%	–
3.41 ± 0.65	Cn1c(=O)nc(-c2ccccc2)c2cc(Cl)ccc21 [Compound 2f]	–	–	around 90%	abolished
